In article PMC3784021 (Analytical biochemistry, 2013):

Molecular target: T1, AMSH (Associated Molecule with the SH3 domain of STAM) (Homo sapiens, UniProt O95630)
T1 sequence (O95630 219-424): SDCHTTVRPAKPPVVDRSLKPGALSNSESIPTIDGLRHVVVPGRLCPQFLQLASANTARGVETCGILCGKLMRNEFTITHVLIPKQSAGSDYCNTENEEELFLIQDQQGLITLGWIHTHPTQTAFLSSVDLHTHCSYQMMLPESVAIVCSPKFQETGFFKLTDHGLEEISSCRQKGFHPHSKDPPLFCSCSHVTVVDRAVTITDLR
Assay: FRET deubiquitinase assay with Lys63-linked diubiquitin probe
Format: biochemical

## CCN1C(=O)C=CC1=O [NEM, N-ethylmaleimide]
  IC50: 16.2 ± 3.1 µM
